Columns and labels:
Assay in all cases: drug sensitivity score (DSS) from 5-point dose-response viability curve (DSS (area-under-curve based score)); higher = more sensitive (stronger growth inhibition or killing); extreme values may be limits of the assay
Conditions in all cases: exposure time: 72 h; concentration range: 5 concentrations over 10,000-fold range
JHOS2 = test system: JHOS2
Method in brief: (§1)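 Each cell line and drug received a drug sensitivity score from Breeze software, where higher means more sensitive. Zero stands for no response. Scores came from CellTiter-Glo viability readings of ovarian cancer and normal ovarian cells, 1,500 per well in 384-well plates, after 3 days at 37°C, 5% CO2 with drugs at five concentrations over a 10,000-fold range.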

OVCAR5 = test system: OVCAR5
Method in brief: as §1

CAOV3 = test system: CAOV3
Method in brief: as §1

OV90 = test system: OV90
Method in brief: as §1

Kuramochi = test system: Kuramochi
Method in brief: as §1

COV362 = test system: COV362
Method in brief: as §1

COV318 = test system: COV318
Method in brief: as §1

HOSE2C = test system: HOSE2C
Method in brief: as §1

Ovsaho = test system: Ovsaho
Method in brief: as §1

HOSE1C = test system: HOSE1C
Method in brief: as §1

OVCAR8 = test system: OVCAR8
Method in brief: as §1

OVCAR4 = test system: OVCAR4
Method in brief: as §1

| Compound | drug sensitivity score (JHOS2) | drug sensitivity score (OVCAR5) | drug sensitivity score (CAOV3) | drug sensitivity score (OV90) | drug sensitivity score (Kuramochi) | drug sensitivity score (COV362) | drug sensitivity score (COV318) | drug sensitivity score (HOSE2C) | drug sensitivity score (Ovsaho) | drug sensitivity score (HOSE1C) | drug sensitivity score (OVCAR8) | drug sensitivity score (OVCAR4) |
| --- | --- | --- | --- | --- | --- | --- | --- | --- | --- | --- | --- | --- |
| CC(C)N(C[C@H]1O[C@@H](n2cnc3c(N)ncnc32)[C@H](O)[C@@H]1O)[C@H]1C[C@@H](CCc2nc3cc(C(C)(C)C)ccc3[nH]2)C1 [Pinometostat] | 0 | 0 | 0 | 0 | 0 | 0 | 0 | 0 | 0 | 0 | 0 | 0 |
| CNC(=O)c1ccc(N2C(=S)N(c3cnc(C#N)c(C(F)(F)F)c3)C(=O)C23CCC3)cc1F [Apalutamide] | 0 | 0 | 0 | 0 | 0 | 0 | 0 | 0 | 0 | 0 | 0 | 0 |
| COc1cc([C@@H]2c3cc4c(cc3[C@@H](O[C@@H]3O[C@@H]5CO[C@@H](c6cccs6)O[C@H]5[C@H](O)[C@H]3O)[C@H]3COC(=O)[C@H]23)OCO4)cc(OC)c1O [Teniposide] | 0 | 0 | 0 | 0 | 0 | 0 | 0 | 0 | 0 | 0 | 0 | 0 |
| COc1c(C)cnc(Cn2cnc3c(Cl)nc(N)nc32)c1C [BIIB021] | 20.6 | 17.3 | 16 | 18.5 | 9 | 9.5 | 7 | 20.5 | 3.3 | 15 | 19.7 | 9.9 |
| O=C(/C=C\n1cnc(-c2cc(C(F)(F)F)cc(C(F)(F)F)c2)n1)NNc1ccccn1 [Verdinexor] | 7 | 7.5 | 9.2 | 5.1 | 3.1 | 4.7 | 3.6 | 6.1 | 7.6 | 22.2 | 10.9 | 5.4 |
| Cn1cnc2c(F)c(Nc3ccc(Br)cc3F)c(C(=O)NOCCO)cc21 [Binimetinib] | 1.5 | 7.1 | 7.6 | 13.4 | 3.5 | 1.3 | 0 | 0 | 6.2 | 0 | 0 | 1.7 |
| CC(C)Cn1cnc2c(N)nc3ccccc3c21 [Imiquimod] | 0.5 | 0 | 0 | 0 | 0 | 0 | 0 | 0 | 0 | 0 | 0.1 | 0 |
| CCCC(CCC)C(=O)O [Valproic acid] | 0 | 0 | 0 | 0 | 0 | 0 | 0 | 0 | 0 | 0 | 0 | 0 |
| O=C(NOCCO)c1ccc2cncn2c1Nc1ccc(I)cc1F [GDC-0623] | 0.6 | 6.1 | 5 | 16.3 | 0.1 | 2.3 | 0 | 1.3 | 0.8 | 0 | 0.4 | 6.3 |
| S=c1[nH]cnc2nc[nH]c12 [Mercaptopurine] | 4.1 | 7.3 | 12.4 | 4.4 | 7.7 | 6.4 | 0.1 | 0 | 5.5 | 0 | 8.6 | 12.3 |
| Nc1nc(F)nc2c1ncn2[C@@H]1O[C@H](CO)[C@@H](O)[C@@H]1O [Fludarabine] | 0 | 0 | 0.2 | 1.5 | 0 | 0.5 | 0 | 22.6 | 0.1 | 25.2 | 4.4 | 0.2 |
| Clc1ccc(C(c2ccccc2Cl)C(Cl)Cl)cc1 (configuration not stated) [Mitotane] | 0 | 0 | 0 | 0.5 | 0 | 0 | 0.1 | 0 | 0 | 0 | 0 | 0.3 |
| CC(=O)OC[C@H]1O[C@@H]([S-])[C@H](OC(C)=O)[C@@H](OC(C)=O)[C@@H]1OC(C)=O.CCP(CC)CC.[Au+] [Auranofin] | 4.1 | 1.3 | 9.3 | 3.5 | 2.9 | 0 | 5 | 13.3 | 7.8 | 13.3 | 3.4 | 1.7 |
| CCNCCS(=O)(=O)NC[C@@]1(c2ccccc2)SC(NC(=O)C(C)(C)C)=NN1C(=O)C(C)(C)C [Litronesib] | 6.1 | 19 | 23.2 | 11.6 | 7.5 | 1.1 | 3.4 | 16.7 | 7.8 | 25 | 18.4 | 4.9 |
| C[C@@H]1COC(Nc2ccc3ncnc(Nc4ccc(OCc5nccs5)c(Cl)c4)c3c2)=N1 [Varlitinib] | 0 | 4.1 | 3.2 | 0 | 0.4 | 0 | 0 | 0.2 | 0.3 | 0.4 | 5.4 | 1.9 |
| O=C(c1ccc(OCCN2CCCCC2)cc1)c1c(-c2ccc(O)cc2)sc2cc(O)ccc12 [Raloxifene] | 1 | 2 | 0.5 | 1.9 | 2.6 | 1.2 | 1.8 | 0 | 3.3 | 0 | 1.5 | 0.3 |
